Experimental data reported in ChEMBL document CHEMBL1201862, “PubChem BioAssay data set” (2004).
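Method: 48-hour compound exposure of cells in 96-well plates, five concentrations, linear interpolation of endpoints. At the GI50, growth is halved.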 Active and inactive are the calls of the source. Rule as the data show it: active = GI50 up to about 1.1 µM and inactive = higher.

Key:
Assay in all cases: NCI anticancer screen, dose series, 48 h
CAKI-1 = test system: CAKI-1
EKVX = test system: EKVX
HCC 2998 = test system: HCC 2998
HL-60 = test system: HL-60
HOP-92 = test system: HOP-92
HT-29 = test system: HT-29
Malme-3M = test system: Malme-3M
NCI-H23 = test system: NCI-H23
OVCAR-4 = test system: OVCAR-4
OVCAR-8 = test system: OVCAR-8
RPMI-8226 = test system: RPMI-8226
SF-539 = test system: SF-539
SK-MEL-28 = test system: SK-MEL-28
SK-MEL-5 = test system: SK-MEL-5
SNB-19 = test system: SNB-19
TK-10 = test system: TK-10
UACC-62 = test system: UACC-62
COLO 205 = test system: COLO 205

Row | Structure (SMILES) | GI50 (CAKI-1) | GI50 (EKVX) | GI50 (HCC 2998) | GI50 (HL-60) | GI50 (HOP-92) | GI50 (HT-29) | GI50 (Malme-3M) | GI50 (NCI-H23) | GI50 (OVCAR-4) | GI50 (OVCAR-8) | GI50 (RPMI-8226) | GI50 (SF-539) | GI50 (SK-MEL-28) | GI50 (SK-MEL-5) | GI50 (SNB-19) | GI50 (TK-10) | GI50 (UACC-62) | GI50 (COLO 205)
1 | CCCCCCCCCOC(=S)NCCCCC | 27.8 µM (inactive) | 35.2 µM (inactive) | 34.4 µM (inactive) | 16.6 µM (inactive) | 20.7 µM (inactive) | 26.8 µM (inactive) | 29.8 µM (inactive) | 26.7 µM (inactive) | 33.9 µM (inactive) | 38.7 µM (inactive) | 19.5 µM (inactive) | 20.8 µM (inactive) | 38.7 µM (inactive) | 21.5 µM (inactive) | 35.1 µM (inactive) | 18.4 µM (inactive) | 29.2 µM (inactive) | –
2 | CCOc1c(Cc2ccccc2)c(=O)n2c3ccccc3n3c(=O)n(C)c(=O)c1c23 | > 100 µM (inactive) | > 100 µM (inactive) | > 100 µM (inactive) | – | > 100 µM (inactive) | > 100 µM (inactive) | > 100 µM (inactive) | > 100 µM (inactive) | > 100 µM (inactive) | > 100 µM (inactive) | > 100 µM (inactive) | > 100 µM (inactive) | > 100 µM (inactive) | > 100 µM (inactive) | > 100 µM (inactive) | > 100 µM (inactive) | > 100 µM (inactive) | > 100 µM (inactive)
3 | CC1C(=O)N(C)C2(CO)C(=O)O[C@H](C)C12O (some centres not stated) | > 100 µM (inactive) | > 100 µM (inactive) | > 100 µM (inactive) | – | < 0.01 µM (active) | > 100 µM (inactive) | > 100 µM (inactive) | > 100 µM (inactive) | > 100 µM (inactive) | > 100 µM (inactive) | > 100 µM (inactive) | > 100 µM (inactive) | > 100 µM (inactive) | > 100 µM (inactive) | > 100 µM (inactive) | > 100 µM (inactive) | > 100 µM (inactive) | > 100 µM (inactive)
4 | Cc1[nH]c2ccccc2c1CC/C(=N\Nc1ccccc1)c1ccccc1 | > 100 µM (inactive) | > 100 µM (inactive) | > 100 µM (inactive) | > 100 µM (inactive) | – | > 100 µM (inactive) | > 100 µM (inactive) | > 100 µM (inactive) | > 100 µM (inactive) | > 100 µM (inactive) | > 100 µM (inactive) | > 100 µM (inactive) | > 100 µM (inactive) | > 100 µM (inactive) | – | > 100 µM (inactive) | > 100 µM (inactive) | –
5 | OC[C@@H]1CC#C/C=C\C#CC[C@@H]1CO | > 100 µM (inactive) | > 100 µM (inactive) | > 100 µM (inactive) | > 100 µM (inactive) | < 0.01 µM (active) | > 100 µM (inactive) | > 100 µM (inactive) | > 100 µM (inactive) | > 100 µM (inactive) | > 100 µM (inactive) | > 100 µM (inactive) | > 100 µM (inactive) | > 100 µM (inactive) | > 100 µM (inactive) | > 100 µM (inactive) | > 100 µM (inactive) | – | > 100 µM (inactive)
6 | CCOC(=O)/C(=C/c1ccc(OC)c(OC)c1)C(=O)c1ccccc1 | 14.7 µM (inactive) | 25.8 µM (inactive) | 18.3 µM (inactive) | – | – | 13.6 µM (inactive) | 76.6 µM (inactive) | 17.7 µM (inactive) | 21.4 µM (inactive) | 22.3 µM (inactive) | 10.5 µM (inactive) | – | 13.5 µM (inactive) | 14.3 µM (inactive) | 15.8 µM (inactive) | 26.4 µM (inactive) | 13.2 µM (inactive) | 16.9 µM (inactive)
7 | COc1ccc(/C=C2\CCC(CCN3CCOCC3)C2=O)cc1 (configuration not stated) | > 100 µM (inactive) | > 100 µM (inactive) | > 100 µM (inactive) | > 100 µM (inactive) | > 100 µM (inactive) | > 100 µM (inactive) | > 100 µM (inactive) | > 100 µM (inactive) | > 100 µM (inactive) | > 100 µM (inactive) | > 100 µM (inactive) | > 100 µM (inactive) | > 100 µM (inactive) | > 100 µM (inactive) | > 100 µM (inactive) | > 100 µM (inactive) | > 100 µM (inactive) | –
8 | C=CCNC(=S)N1c2ccccc2NC(=O)CC1C (configuration not stated) | – | > 100 µM (inactive) | – | > 100 µM (inactive) | – | > 100 µM (inactive) | > 100 µM (inactive) | > 100 µM (inactive) | > 100 µM (inactive) | > 100 µM (inactive) | > 100 µM (inactive) | > 100 µM (inactive) | > 100 µM (inactive) | > 100 µM (inactive) | > 100 µM (inactive) | > 100 µM (inactive) | > 100 µM (inactive) | > 100 µM (inactive)
9 | C/N=C(\SC)N(C)c1nc(=[N+](C)C)ss1.[O-][Cl+3]([O-])([O-])[O-] | 52 µM (inactive) | 45.3 µM (inactive) | > 100 µM (inactive) | 7.38 µM (inactive) | > 100 µM (inactive) | 4.22 µM (inactive) | – | > 100 µM (inactive) | – | > 100 µM (inactive) | – | – | > 100 µM (inactive) | 7.21 µM (inactive) | > 100 µM (inactive) | > 100 µM (inactive) | 4.9 µM (inactive) | –
10 | N#CC(C(=O)C(=O)Nc1ccc(Cl)c(Cl)c1)c1ccc(Cl)cc1 (configuration not stated) | > 100 µM (inactive) | > 100 µM (inactive) | 51.9 µM (inactive) | 47.2 µM (inactive) | 36.4 µM (inactive) | 69.2 µM (inactive) | 97.3 µM (inactive) | > 100 µM (inactive) | – | > 100 µM (inactive) | 35.2 µM (inactive) | > 100 µM (inactive) | > 100 µM (inactive) | 74.8 µM (inactive) | 65.5 µM (inactive) | > 100 µM (inactive) | 30.5 µM (inactive) | 45.1 µM (inactive)
11 | CN(C)CC1CCCC/C1=N/OC(=O)c1ccc(Cl)cc1 (configuration not stated) | > 100 µM (inactive) | > 100 µM (inactive) | > 100 µM (inactive) | > 100 µM (inactive) | > 100 µM (inactive) | > 100 µM (inactive) | > 100 µM (inactive) | > 100 µM (inactive) | > 100 µM (inactive) | > 100 µM (inactive) | > 100 µM (inactive) | > 100 µM (inactive) | > 100 µM (inactive) | – | – | > 100 µM (inactive) | > 100 µM (inactive) | > 100 µM (inactive)
12 | Cn1c(=O)c2nc(-c3ccc(Cl)cc3)oc2n(C)c1=O | > 100 µM (inactive) | > 100 µM (inactive) | > 100 µM (inactive) | > 100 µM (inactive) | > 100 µM (inactive) | > 100 µM (inactive) | > 100 µM (inactive) | > 100 µM (inactive) | > 100 µM (inactive) | > 100 µM (inactive) | > 100 µM (inactive) | > 100 µM (inactive) | > 100 µM (inactive) | > 100 µM (inactive) | > 100 µM (inactive) | > 100 µM (inactive) | > 100 µM (inactive) | –
13 | N=C(N)N/N=C(/CCN1CCCC1)CC(c1ccccc1)c1c(O)c2ccccc2oc1=O (configuration not stated) | > 100 µM (inactive) | > 100 µM (inactive) | > 100 µM (inactive) | – | 16.7 µM (inactive) | > 100 µM (inactive) | > 100 µM (inactive) | > 100 µM (inactive) | > 100 µM (inactive) | – | > 100 µM (inactive) | > 100 µM (inactive) | > 100 µM (inactive) | – | > 100 µM (inactive) | > 100 µM (inactive) | > 100 µM (inactive) | > 100 µM (inactive)
14 | Cc1ccc(NC(=O)SCCC(=O)O)cc1NC(=O)SCCC(=O)O | > 100 µM (inactive) | > 100 µM (inactive) | > 100 µM (inactive) | > 100 µM (inactive) | – | > 100 µM (inactive) | – | > 100 µM (inactive) | > 100 µM (inactive) | > 100 µM (inactive) | > 100 µM (inactive) | > 100 µM (inactive) | > 100 µM (inactive) | – | > 100 µM (inactive) | > 100 µM (inactive) | – | > 10 µM (inactive)
15 | CC(C)c1cccc(C(C)C)c1NC(=O)C(=O)C1SC(=S)NC1=O (configuration not stated) | > 100 µM (inactive) | > 100 µM (inactive) | – | > 100 µM (inactive) | > 100 µM (inactive) | > 100 µM (inactive) | > 100 µM (inactive) | > 100 µM (inactive) | > 100 µM (inactive) | > 100 µM (inactive) | > 100 µM (inactive) | > 100 µM (inactive) | > 100 µM (inactive) | > 100 µM (inactive) | > 100 µM (inactive) | > 100 µM (inactive) | > 100 µM (inactive) | > 100 µM (inactive)
16 | COC(=O)NN1C(C)=C(C(=O)OC)C2(C#N)C(C(=O)OC)=C(C)N(NC(=O)OC)C12N (configuration not stated) | > 100 µM (inactive) | > 100 µM (inactive) | > 100 µM (inactive) | > 100 µM (inactive) | > 100 µM (inactive) | > 100 µM (inactive) | > 100 µM (inactive) | > 100 µM (inactive) | > 100 µM (inactive) | > 100 µM (inactive) | > 100 µM (inactive) | > 100 µM (inactive) | > 100 µM (inactive) | – | > 100 µM (inactive) | > 100 µM (inactive) | > 100 µM (inactive) | > 100 µM (inactive)
17 | CCNC(=O)O/N=C1/C=C2CC[C@@H]3C(CC[C@@]4(C)C3CC[C@@H]4OC(=O)NCC)[C@@]2(C)CC1 (some centres not stated) | 4.26 µM (inactive) | 4.99 µM (inactive) | 4.3 µM (inactive) | – | 4.43 µM (inactive) | 3.27 µM (inactive) | – | 3.07 µM (inactive) | 2.47 µM (inactive) | 4.32 µM (inactive) | 2.52 µM (inactive) | 4.32 µM (inactive) | 3.32 µM (inactive) | 3.44 µM (inactive) | 2.48 µM (inactive) | 2.56 µM (inactive) | 2.67 µM (inactive) | 2.44 µM (inactive)
